In patent US20060148895A1, “New composition use and method” (priority 2002, published 2006):
Read-outs that look alike come from different tables or passages of the source.

Columns and labels:
[1] = cited from earlier work
[2] = cited from earlier work; remark: listed apart in the source
[3] = Washing-out properties: residuals of Pres. (18) components after rinsing the housing; details: to a 50 kg person
Description: In a safety evaluation it assumed that the entire volume of a housing is filled with the aqueous antimicrobial preservation composition as the worst case. […] (18). The housing was inserted in its device for extra-corporeal circulation treatment and rinsed with 900 ml of a Ringer-Acetate solution (Pharmacia, Inc) before clinical use. The residual concentration of the components of Pres. (18) after the rinsing procedure was then analyzed. The maximum concentrations found were below the detection limit: […]

[4] = after ingesting 2000 mg/day for 30 days; cited from earlier work
[5] = cited from earlier work; remark: listed apart in the source
[6] = healthy subjects; cited from earlier work
[7] = cited from earlier work; remark: listed apart in the source
[8] = 5 day covered contact in 50 human volunteers, cited from earlier work
[9] = neat ethyl paraben; cited from earlier work
[10] = cited from earlier work; remark: listed apart in the source

SMILES | Intraperitoneal LD50 (Mouse) [1] [mg/kg] | Repeated oral dose (Rat) - 96 weeks: dose that gave no visible signs of toxicity or tissue changes in the major organs [2] | Maximal intravenous dose from residuals [3] [mg/kg] | Repeated oral dose (human) [4] | Eye irritation (human): time within which irritation and burning sensation disappeared ([5]; solutions containing 0.1-0.3% methyl paraben) | Skin sensitisation (human) [6] | Acute oral LD50 (Mouse) [7] [mg/kg] | Skin irritation (human) ([8]; 5% solution in Propylene glycol) | Eye irritation (rabbit) [9] | Repeated oral dose (Rat) - 25 weeks: signs of toxicity ([2]; diet containing 2% ethyl paraben, 25 weeks) | Acute oral LD50 (Rat) [10] [mg/kg] | Skin irritation (human) ([8]; 7% solution in propylene glycol) | Eye irritation (human) ([5]; solution containing 0.01% propyl paraben, contact time of 15 minutes in 60 patients) | Skin irritation (human) ([8]; 12% solution in Propylene glycol)
COC(=O)c1ccc(O)cc1 [Methyl paraben] | 960 | 900-1200 mg/kg/day gave no | 0.042 | No obvious toxic effects | disappeared within 1 minute | No evidence of skin | >8000 | glycol was non-irritant. (5 | – | – | – | – | – | –
CC(O)CO (stereo not drawn) [Propylene glycol] | – | – | <0.022 | – | – | – | – | – | – | – | – | – | – | –
CCOC(=O)c1ccc(O)cc1 [Ethyl paraben] | – | – | <0.042 | – | – | No evidence of skin | – | – | slight irritation | paraben gave no visible signs | >4300 | glycol was non-irritant. (5 | – | –
CCCOC(=O)c1ccc(O)cc1 [Propyl paraben] | 640 | 900-1200 mg/kg/day gave no | <0.042 | – | – | – | >8000 | – | – | – | – | – | propyl paraben produced no | glycol was non-irritant. (5
